Measured values: ChEMBL document CHEMBL1201862, “PubChem BioAssay data set” (2004)
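Interpolation was linear, between the two tested concentrations surrounding the appropriate level; five concentrations were tested over 48 hours in 96-well plates. GI50: concentration for 50% inhibition of growth.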 Active and inactive are the calls of the source. Cut-off read from the data, not from the text of the source: active = GI50 up to about 1.1 µM and inactive = higher.

How the values were obtained:
Test in all cases: growth of human tumour cells (NCI), 48 h
[1] = test system: NCI/ADR-RES
[2] = test system: BT-549
[3] = test system: 786-0
[4] = test system: SK-MEL-2
[5] = test system: RXF 393
[6] = test system: Malme-3M
[7] = test system: K562
[8] = test system: NCI-H522
[9] = test system: SNB-75
[10] = test system: SF-539
[11] = test system: SW-620
[12] = test system: MDA-MB-435
[13] = test system: RPMI-8226
[14] = test system: KM12
[15] = test system: MDA-MB-231
[16] = test system: SK-MEL-28
[17] = test system: HOP-62
[18] = test system: T47D
[19] = test system: HT-29
[20] = test system: UACC-62
[21] = test system: IGROV-1
[22] = test system: TK-10
[23] = test system: EKVX
[24] = test system: OVCAR-4
[25] = test system: MOLT-4
[26] = test system: ACHN
[27] = test system: SK-MEL-5
[28] = test system: LOX IMVI
[29] = test system: MDA-N
[30] = test system: SK-OV-3
[31] = test system: SNB-19
[32] = test system: Hs-578T
[33] = test system: U-251
[34] = test system: HL-60
[35] = test system: OVCAR-3
[36] = test system: PC-3
[37] = test system: HCT-116
[38] = test system: A498
[39] = test system: A549
[40] = test system: CCRF-CEM
[41] = test system: SF-295
[42] = test system: SN12C
[43] = test system: NCI-H226
[44] = test system: COLO 205
[45] = test system: HCT-15
[46] = test system: CAKI-1
[47] = test system: MCF7
[48] = test system: M14
[49] = test system: DU-145
[50] = test system: NCI-H23
[51] = test system: OVCAR-8
[52] = test system: UO-31
[53] = test system: OVCAR-5
[54] = test system: UACC-257
[55] = test system: SR

`C[N+]1(C)C2CC(OC(=O)C(CO)c3ccccc3)CC1C1OC12` (stereo not given) was tested, and the GI50 [1] was > 100 µM (inactive), the GI50 [2] was > 100 µM (inactive) and the GI50 [3] was > 100 µM (inactive). For the same molecule, the GI50 [4] was > 100 µM (inactive), the GI50 [5] was > 100 µM (inactive) and the GI50 [6] was > 100 µM (inactive). The GI50 [7] was > 100 µM (inactive), the GI50 [8] was > 100 µM (inactive) and the GI50 [9] was > 100 µM (inactive). For the same molecule, the GI50 [10] was > 100 µM (inactive), the GI50 [11] was > 100 µM (inactive) and the GI50 [12] was > 100 µM (inactive). The GI50 [13] was > 100 µM (inactive), the GI50 [14] was > 100 µM (inactive) and the GI50 [15] was > 100 µM (inactive). For the same molecule, the GI50 [16] was > 100 µM (inactive), the GI50 [17] was > 100 µM (inactive) and the GI50 [18] was > 100 µM (inactive). For the same molecule, the GI50 [19] was > 100 µM (inactive), the GI50 [20] was > 100 µM (inactive) and the GI50 [21] was > 100 µM (inactive). For the same molecule, the GI50 [22] was > 100 µM (inactive), the GI50 [23] was > 100 µM (inactive) and the GI50 [24] was > 100 µM (inactive). For the same molecule, the GI50 [25] was > 100 µM (inactive), the GI50 [26] was > 100 µM (inactive) and the GI50 [27] was > 100 µM (inactive). The GI50 [28] was > 100 µM (inactive), the GI50 [29] was > 100 µM (inactive) and the GI50 [30] was > 100 µM (inactive). For the same molecule, the GI50 [31] was > 100 µM (inactive), the GI50 [32] was > 100 µM (inactive) and the GI50 [33] was > 100 µM (inactive). The GI50 [34] was > 100 µM (inactive), the GI50 [35] was > 100 µM (inactive) and the GI50 [36] was > 100 µM (inactive). For the same molecule, the GI50 [37] was > 100 µM (inactive), the GI50 [38] was > 100 µM (inactive) and the GI50 [39] was > 100 µM (inactive). The GI50 [40] was > 100 µM (inactive), the GI50 [41] was > 100 µM (inactive) and the GI50 [42] was > 100 µM (inactive). For the same molecule, the GI50 [43] was > 100 µM (inactive), the GI50 [44] was > 100 µM (inactive) and the GI50 [45] was over 100 µM. For the same molecule, the GI50 [46] was > 100 µM (inactive), the GI50 [47] was > 100 µM (inactive) and the GI50 [48] was > 100 µM (inactive). The GI50 [49] was > 100 µM (inactive), the GI50 [50] was > 100 µM (inactive) and the GI50 [51] was > 100 µM (inactive). The GI50 [52] was > 100 µM (inactive), the GI50 [53] was > 100 µM (inactive) and the GI50 [54] was > 100 µM (inactive). For the same molecule, the GI50 [55] was > 100 µM (inactive).
